Key:
[1] = system: Hedgehog signalling (Gli1 mRNA); test: Hedgehog signalling assay using quantitative RT-PCR (Gli1 mRNA in NIH/3T3 cells); type: cell-based; conditions: sterol treatment ~16 hours, different concentrations (FIG. 6, 7)
Description: NIH/3T3 cells were grown to confluency in Dulbecco's Modified Eagle's Medium (DMEM) containing 10% Fetal Bovine Serum (FBS, Optima Grade, Atlanta Biologicals). Confluent cells were exchanged into 0.5% FBS DMEM for 24 hours to allow ciliogenesis prior to treatment with sterols in DMEM containing 0.5% FBS for ˜16 hours. SHH protein carrying a C-terminal hexa-histidine tag was expressed in bacteria and purified as described previously [Bishop Nat Struct Mol Biol 2009]. The mRNA levels of Gli1, a direct Hh target gene commonly used as a metric for signalling strength, were measured using the Power SYBR Green Cells-To-CT kit (Thermo Fisher Scientific). The primers used are Gli1 (forward primer: 5′-[…]-3′ and reverse primer: 5′-[…]-3′), Gapdh (forward primer: 5′-[…]-3′ and reverse primer: 5′-[…]-3′). Transcript levels relative to Gapdh were calculated using the Δelta-Ct method. Each qRT-PCR experiment, which was repeated twice, included two biological replicates, each with two technical replicates.

Smoothened (Smo) = conditions: from the literature (Myers Dev Cell 2013; Corcoran PNAS 2006; Nachtergaele Nat Chem Bio 2012); cited from earlier work

## C[C@H](CCC(=O)O)[C@H]1CC[C@H]2[C@@H]3C(=O)C=C4C[C@@H](O)CC[C@]4(C)[C@H]3CC[C@]12C [Compound XXI, 3β-Hydroxy-7-oxochol-5-en-24-oic acid]
[1]
  effect on Hedgehog signalling (mRNA levels of Gli1): inhibitor of Hedgehog signalling

## CC(C)CCC[C@](C)(O)[C@H]1CC[C@H]2[C@@H]3CC=C4C[C@@H](O)CC[C@]4(C)[C@H]3CC[C@@]21C [20S-Hydroxycholesterol, reference compound]
Smoothened (Smo)
  activation of Smo: activate Smo in vitro

## C[C@@H](CO)CCC[C@@H](C)[C@H]1CC[C@H]2[C@@H]3C(=O)C=C4C[C@@H](O)CC[C@]4(C)[C@H]3CC[C@]12C [Compound XX, 3β,26-Dihydroxycholest-5-en-7-one]
[1]
  effect on Hedgehog signalling (mRNA levels of Gli1): activator of Hedgehog signalling
Smoothened (Smo)
  activation of Smo: activators of Smo

## C[C@H](CCCC(C)(C)O)[C@H]1CC[C@H]2[C@@H]3C(=O)C=C4C[C@@H](O)CC[C@]4(C)[C@H]3CC[C@]12C [Compound XXII, 3β,25-dihydroxycholest-5-en-7-one]
Smoothened (Smo)
  activation of Smo: activators of Smo
